Assay [1] concerns neurons in the caudal nucleus of the solitary tract (cNST). Kind of assay: cFos staining of the caudal nucleus of the solitary tract after drinking the solution. The class given is in vivo, mice. The conditions noted are these: for cFos labeling of cNST neurons: wild-type animals, water deprived thirty-six hours, 1 mL solution by drinking. How it is done:
To determine where sugar preference is encoded, applicants screen brain regions for increased expression of Fos, a proxy for neural activity, in animals challenged with sugar but not water or artificial sweetener.
Wild-type animals were water deprived for thirty-six hours and then given access to 1 mL solution of water (FIG. 3A), sucrose (FIG. 3), or artificial sweetener (FIG. 3C). Tasteless (TrpM5 knockout) animals were given water (FIG. 3D) or sucrose (FIG. 3E), The caudal nucleus of the solitary tract was analyzed using cFos staining. […] Green: c-fos antibody staining. Magenta: a neural stain (neurotrace) (FIG. 3A-3D).

Assay [2] is described as follows: two-solution preference behavioral assay, artificial sweetener (AceK) versus sucrose, naive animals. Type of assay: in vivo, mice. An excerpt: To explicitly test for sugar preference in mice, applicants developed a simple behavioral assay.
During five minute trials, two groups of five naive animals were presented with an intensely sweet, artificial compound (Acesulfame potassium or AceK) and a less sweet natural sugar (sucrose) . […] Animals were then returned to their home cage and given access to either artificial sweetener (Group 1) or natural sugar (Group 2) for one hour. […] Twenty four hours later, Group 1 was given natural sugar while Group 2 was given artificial sweetener.

For assay [3], the system named is neurons in the caudal nucleus of the solitary tract (cNST). Description: cFos staining of the nucleus of the solitary tract after direct infusion to the gut. The following applies: for Fos expression in the cNST when gavaged: gavage, compared with animals drinking the same solution; for cFos labeling of cNST neurons after gut infusion: wild type animals, 0.5 mL infused directly into the gut. Type of assay: in vivo. The method, then:
Wild type animals were infused directly into the gut with 0.5 mL of water (FIG. 4A), sucrose (FIG. 4B), or artificial sweetener (FIG. 4C). […] Green: c-fos antibody staining. Magenta; a neural stain (neurotrace) (FIG. 4A-4C).

The nature of assay [4]: consumption trials of sucralose with or without MDG in a satiated animal. Type of assay: in vivo. The conditions noted are these: 32 mM sucralose+0.4 M MDG vs 32 mM sucralose alone, 20 trials. The method, then:
A satiated animal was given 32 mM sucralose for the first 11 trials, and then given either 32 mM sucralose alone, or 32 mM sucralose+0.4 M MDG. […] Shown are 20 trials.

For assay [5], the system named is activity in the cNST. Kind of assay: silencing of cNST activity by cannula injection during sucrose exposure, sugar preference formation. Type of assay: in vivo. An excerpt:
When given a choice between highly concentrated artificial sweetener and a low concentration of natural sweet, animals consume the sweeter substance. However, after one exposure to natural sugar, animals switch their preference to the natural sweet (See FIG. 5). If the cNST is indeed an essential brain center for establishing sugar preference, a prediction would be that silencing the activity of the neurons in this nucleus during exposure to sugar should prevent a preference from forming. To determine if this is the case, applicants implanted a cannula above the cNST of naive animals, waited 2 weeks for recovery, and then assessed the ability of these animals to form a sugar preference. […] Prior to receiving sugar in their home cage, animals were injected with a glutamate receptor antagonist (50 nL of NBQX, […]) to reversibly silence activity in the cNST.

Molecules are shown by their SMILES. Entries after “also recorded” stand apart in the source; their conditions may differ.

`CC1=CC(=O)NS(=O)(=O)O1` [AceK, Acesulfame potassium]: the “cFos labeling of cNST neurons” value in assay [1] was “almost no labeled cells at all”. Besides, the “initial consumption, AceK versus sucrose” value in assay [2] (five minute trials, naive animals, before home-cage exposure) is “much more AceK than sucrose”. In assay [3], the “Fos expression in the cNST when gavaged” value is on record as “identical” and the “cFos labeling of cNST neurons after gut infusion” value is on record as “almost no labeled cells at all”.
Regarding `COC1OC(CO)C(O)C(O)C1O` [MDG, Alpha-Methyl-D-Glucopyranose], the appetitiveness/consumption of sucralose result in assay [4] is listed as “dramatically increases the appetitiveness/consumption of sucralose; also recorded: transforms a sucralose solution into the preferred Artificial Sweetener”.
Consider `NS(=O)(=O)c1cccc2c1c([N+](=O)[O-])cc1nc(O)c(O)nc12` [NBQX], for which the “formation of sugar preference with the cNST silenced” value in assay [5] (50 nL of NBQX, 5 pg/mL, injected above the cNST prior to sugar in home cage, tested twenty-four hours later) is on record as “continued to prefer the artificial sweetener”. Besides, the “sugar preference formation after washout” value in assay [5] (after the drug washed out) is on record as “regained their ability to form a preference”. In addition, the “effect of silencing on sweet taste” value in assay [5] (short-access assays, same animals) is reported as “does not abolish sweet taste”.
`OC[C@H]1O[C@@](CO)(O[C@H]2O[C@H](CO)[C@@H](O)[C@H](O)[C@H]2O)[C@@H](O)[C@@H]1O` [sucrose]: the “cFos labeling of cNST neurons in tasteless animals” value in assay [1] (TrpM5 knockout animals, compared with wild type) was “identical pattern of labeling”. For the same compound, the “cFos labeling of cNST neurons” value in assay [1] is reported as “robustly labeled”. Besides, the “preference between artificial sweetener and sucrose after exposure to sucrose” value in assay [2] (after one hour home-cage access to natural sugar, final preference test) was “animals change preference between artificial sweetener and sucrose after one exposure to sucrose; also recorded: both groups prefer the natural sugar”. Further, in assay [3], the “Fos expression in the cNST when gavaged” value is listed as “identical” and the “cFos labeling of cNST neurons after gut infusion” value is reported as “robustly labeled”.

The values are drawn from patent US20170281772A1, “A NEURAL SUBSTRATE FOR SUGAR PREFERENCE” (The Trustees of Columbia University in the City of New York, priority 2014, published 2017).
